Molecular target: T1, adenosine 2A receptor (A2AR) (Mus musculus, UniProt Q60613)
T1 construct: gene Adora2a
Assay: inhibition of NECA ([…])-stimulated CREB phosphorylation in mouse CD8+ T cells, flow cytometry
Format: cell-based

T1 sequence (Q60613 whole entry): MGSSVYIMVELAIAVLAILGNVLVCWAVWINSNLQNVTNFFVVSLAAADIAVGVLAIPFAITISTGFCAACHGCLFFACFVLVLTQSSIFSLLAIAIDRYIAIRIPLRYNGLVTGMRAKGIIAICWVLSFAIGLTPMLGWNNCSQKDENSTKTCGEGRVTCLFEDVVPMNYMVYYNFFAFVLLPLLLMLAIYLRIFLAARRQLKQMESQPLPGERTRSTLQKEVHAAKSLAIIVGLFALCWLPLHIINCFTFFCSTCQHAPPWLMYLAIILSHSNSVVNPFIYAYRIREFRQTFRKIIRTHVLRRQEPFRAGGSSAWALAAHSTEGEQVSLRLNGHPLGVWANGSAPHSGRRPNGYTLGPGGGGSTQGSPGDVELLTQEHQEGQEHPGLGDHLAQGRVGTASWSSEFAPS

- IC50: ~3 nM
Substance: DZD2269

— paper PMC7150468, “A2AR Antagonism with DZD2269 Augments Antitumor Efficacy of Irradiation in Murine Model” (Journal of Cancer, 2020)
